Assay results reported in PubChem BioAssay (NCI).
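Tested at 5 concentrations; 48 h exposure; 96-well plates; endpoints linearly interpolated, else capped at highest concentration. Abbreviation: GI50, concentration required for 50% inhibition of growth. The concentration for full growth arrest is given as TGI.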

What follows are molecules tested on IGROV1 ovarian (assay: DTP human tumour cell line panel, 48 h).

SMILES	TGI [µM]	GI50 [µM]
O=Cc1cc2c(cc1-c1cc3c(cc1C=O)OCO3)OCO2	> 100	
C/C(=N\NC(N)=O)c1sc(-c2nc(C)c(/C(C)=N/NC(N)=O)s2)nc1C	> 100	
CN(C)CCNC(=O)Cc1ccccc1Nc1c(Cl)cccc1Cl	38.4	
COc1cc2c(cc1OCCCN1CCN(CCCOc3cc4c(cc3OC)C(=O)N3CC(F)(F)C[C@H]3C=N4)CC1)N=C[C@@H]1CC(F)(F)CN1C2=O	5.13	1.92
C[N+](C)(C)CC(=O)N/N=C(/Cc1cc(=O)oc2cc(O)ccc12)C(=O)Nc1ccc(Cl)cc1	> 100	
COc1cccc2c1O/C(=C\c1ccc([N+](=O)[O-])s1)C2=O	5	1.91
COc1cc(C[P+](c2ccccc2)(c2ccccc2)c2ccccc2)cc(OC)c1OC	> 100	
C=C(C)[C@@H]1CC[C@]2(CN)CC[C@]3(C)[C@H](CC[C@@H]4[C@@]5(C)CCCNC(C)(C)[C@@H]5CC[C@]43C)[C@@H]12	3.57	1.82
CCCN(CCC)c1c([N+](=O)[O-])cc(C(=O)N(CC)CC)cc1[N+](=O)[O-]	> 100	
C=C(CN(C)Cc1ccccc1)c1ccc(NC(=O)c2ccc(C(=C)CN(C)Cc3ccccc3)cc2)cc1	53.2	18.5
COC(=N)c1csc(C2OC(CO)C(O)C2O)n1 (centres undefined)	> 100	
CN1Nc2ccccc2CC1=O	> 100	
O=C(CNc1ccc(Cl)cc1Cl)Nn1c(-c2ccccc2)nc2ccccc2c1=O	42.2	
CO[C@@H]1CC[C@]2(C)OC[C@H](C)[C@@H]3C[C@@H](C)[C@@H](OC(C)=O)[C@@H]4[C@H]3[C@@H]2O[C@H]4C[C@@]1(C)O	> 100	> 100
Oc1oc(C(=C2N=c3ccccc3=N2)c2ccc(Cl)cc2)c(O)c1-c1ccc(Cl)cc1	> 100	
CSC[C@H](NC(=O)COc1cccc2cnccc12)C(=O)NC(Cc1ccccc1)C(O)C(=O)N1CSC[C@H]1C(=O)NC(C)(C)C (some centres undefined)	> 100	
Cc1nc2c(N)ncnc2o1	> 100	
CCN(Cc1c(F)cccc1OC)c1ccc(CO)c(Cl)c1		< 0.036
CCOC(=O)c1c(C)c2c(n1Cc1ccccc1)CSCC2=O	> 100	16.9
CCCCCCCCCCCC[N+]12CC[N+](CCN)(CC1)CC2	39.7	
C[C@H](CCOc1cccc(CC(=O)O)c1)N(Cc1cccc(C(F)(F)F)c1Cl)CC(c1ccccc1)c1ccccc1	19.4	5.77
O=[N+]([O-])c1cccnc1N=Nc1c(O)[nH]c2ccccc12	53.9	
O=C1C=C(Nc2ccc(Cl)cc2C(=O)c2ccccc2)c2ccccc2C1=O	> 100	
O=C1C=C(c2c(O)ccc3ccccc23)c2cc(O)ccc2C1=O	30.3	
CCN(CCNS(C)(=O)=O)c1ccc(N)c(C)c1	13.4	4.3
O=C(c1ccc([N+](=O)[O-])cc1[N+](=O)[O-])N(/N=C/C=C/c1ccccc1)c1nnc(-c2ccccc2)c(-c2ccccc2)n1	> 100	
COc1ccc(NC(=O)CSc2nnc(-c3ccc(NC(C)=O)cc3)o2)cc1	36.9	
CC(=O)N/C(=C\c1ccccc1/C=C(\NC(C)=O)c1nc2cc(C)c(C)cc2[nH]1)c1nc2cc(C)c(C)cc2[nH]1	66.3	
NNc1ncnc2nc[nH]c12	> 55.1	3.56
CN(Cc1cnc2nc(N)nc(N)c2n1)c1ccc(C(=O)N[C@@H](CCS(=O)(=O)O)C(=O)O)cc1	> 100	

Each molecule was assayed on UACC-257 melanoma (assay: DTP human tumour cell line panel, 48 h).

SMILES	GI50 [µM]	TGI [µM]
Nc1c(C(=O)Nc2ccccn2)sc2nc3c(cc12)C(=O)CCC3	69.8	> 100
COc1ccc(Cl)cc1NC(=O)c1ccc(NC2=C(Cl)C(=O)N(Cc3ccccc3)C2=O)cc1	94.1	> 100
Cc1cccc(NC2=C(Cl)C(=O)c3nc(C)ccc3C2=O)c1	1.63	3.12
O=Cc1cc2c(cc1-c1cc3c(cc1C=O)OCO3)OCO2		> 100
C/C(=N\NC(N)=O)c1sc(-c2nc(C)c(/C(C)=N/NC(N)=O)s2)nc1C		> 100
CN(C)CCNC(=O)Cc1ccccc1Nc1c(Cl)cccc1Cl		29.1
COc1cc2c(cc1OCCCN1CCN(CCCOc3cc4c(cc3OC)C(=O)N3CC(F)(F)C[C@H]3C=N4)CC1)N=C[C@@H]1CC(F)(F)CN1C2=O	15.3	31.6
C[N+](C)(C)CC(=O)N/N=C(/Cc1cc(=O)oc2cc(O)ccc12)C(=O)Nc1ccc(Cl)cc1		> 100
COc1cccc2c1O/C(=C\c1ccc([N+](=O)[O-])s1)C2=O	> 100	> 100
FC(F)(F)c1ccc2nc(NCc3ccccc3)c(-c3ccccc3)nc2c1		> 100
